Measurements as given in patent publication US7034036B2, “Inhibitors of ABC drug transporters at the blood-brain barrier” (Pain Therapeutics, Inc., priority 2000, dated 2006).
Entries after “also recorded” stand apart in the source; their conditions may differ.

Experiments:
PGP1a [1] = target: PGP1a (Homo sapiens, UniProt P08183); experiment: Biological activity of exemplary compounds (Activity 1 high affinity site, Activity 2 low affinity site); details: for Activity 2: high capacity, low affinity binding site; for Activity 1: low capacity, high affinity binding site
PGP1a [2] = experiment: Vanadate-sensitive PGP ATPase activity in PGP membranes; type: biochemical; details: for Inhibition of the ATPase associated with PGP1a: semi-quantitative assay
Experimental: The test substances were incubated in the membranes and supplemented with MgATP, with and without sodium orthovanadate present. Orthovanadate inhibits PGP by trapping MgADP in the nucleotide binding site. Thus, the ATPase activity measured in the presence of orthovanadate represents non-PGP ATPase activity and was subtracted from the activity generated without orthovanadate to yield vanadate-sensitive ATPase activity.
ATPase assays were conducted in 96-well microtiter plates. A 0.06 ml reaction mixture containing 40 μg PGP membranes, test substance, and 4 mM MgATP, in buffer containing 50 mM Tris-MES, 2 mM EGTA, 50 mM KCl, 2 mM dithiothreitol, and 5 mM sodium azide, plus organic solvent was incubated at 37° C. for 20 minutes. […] Identical reaction mixtures containing 100 μM sodium orthovanadate were assayed in parallel. The reactions were stopped by the addition of 30 μl of 10% SDS+Antifoam A. The incubations were followed with addition of 200 μl of 35 mM Ammonium Molybdate in 15 mM Zinc Acetate:10% Ascorbic Acid (1:4) and incubated for an additional 20 minutes at 37° C. Additionally, 0.06 ml aliquots of potassium phosphate standards prepared in the buffer described above, were incubated in the plates containing the test and control substances, with SDS and detection reagent added. The liberation of inorganic phosphate was detected by its absorbance at 800 nm and quantitated by comparing the absorbance to a phosphate standard curve. The concentration dependence of the PGP was analyzed for evidence of saturation of PGP-ATPase activity, and apparent kinetic parameters were calculated by non-linear regression.

human PGP = human PGP (Homo sapiens, UniProt P08183); experiment: Inhibition of PGP-mediated [3H]-digoxin transport in LLC-PK1 cell monolayers expressing human PGP cDNA (15B-J); details: for % Inhibition of Digoxin Transport: 5 μM [3H]-digoxin, 90 min
mice [3] = experiment: Tolerance to oxycodone in mice, parallel experiments; type: in vivo
mice [4] = experiment: Tail flick anti-nociception, naltrexone given with morphine from day 1 (Groups C, D, combined analysis); type: in vivo; set-up: Enhancement of Latency (tail flick) / Enhancement of Latency by Naltrexone (tail flick): unit not given here; details: Group 1: morphine 3 mg/kg only
Experimental: In a third series of experiments, 40 male mice were randomized into 5 groups of eight. All mice were administered single 3 mg/kg morphine daily (b.i.d.), beginning on Day 1.
In a final series of experiments, 40 female mice were randomized into 5 groups of eight. All mice were administered single 3 mg/kg morphine daily (b.i.d.), beginning on Day 1.

mice [5] = experiment: Tail flick anti-nociception, naltrexone begun at day 6 in mice dosed daily with morphine (Groups A, B); type: in vivo; details: for Adaptation to repeated dosing (tail flick latency, words): Group 1, morphine 3 mg/kg daily alone
Experimental: 40 male mice were randomized into 5 groups of eight. All mice were administered single 3 mg/kg morphine daily (b.i.d.), beginning on Day 1.
In a second series of experiments, 40 female mice were randomized into 5 groups of eight. All mice were administered single 3 mg/kg morphine daily (b.i.d.), beginning on Day 1.
3 mg/kg of morphine was administered as a single bolus dose to each mouse on group 1 on a daily basis. Mice in Group 2 were also administered 3 mg/kg morphine daily.

[6] = male mice, 0.1 mg/kg oxycodone plus 1 ng/kg naltrexone, 1 ng/kg nalmefene or 1 pg/kg nor-BNI

Sequence of PGP1a (Homo sapiens, UniProt P08183) (P08183 whole entry): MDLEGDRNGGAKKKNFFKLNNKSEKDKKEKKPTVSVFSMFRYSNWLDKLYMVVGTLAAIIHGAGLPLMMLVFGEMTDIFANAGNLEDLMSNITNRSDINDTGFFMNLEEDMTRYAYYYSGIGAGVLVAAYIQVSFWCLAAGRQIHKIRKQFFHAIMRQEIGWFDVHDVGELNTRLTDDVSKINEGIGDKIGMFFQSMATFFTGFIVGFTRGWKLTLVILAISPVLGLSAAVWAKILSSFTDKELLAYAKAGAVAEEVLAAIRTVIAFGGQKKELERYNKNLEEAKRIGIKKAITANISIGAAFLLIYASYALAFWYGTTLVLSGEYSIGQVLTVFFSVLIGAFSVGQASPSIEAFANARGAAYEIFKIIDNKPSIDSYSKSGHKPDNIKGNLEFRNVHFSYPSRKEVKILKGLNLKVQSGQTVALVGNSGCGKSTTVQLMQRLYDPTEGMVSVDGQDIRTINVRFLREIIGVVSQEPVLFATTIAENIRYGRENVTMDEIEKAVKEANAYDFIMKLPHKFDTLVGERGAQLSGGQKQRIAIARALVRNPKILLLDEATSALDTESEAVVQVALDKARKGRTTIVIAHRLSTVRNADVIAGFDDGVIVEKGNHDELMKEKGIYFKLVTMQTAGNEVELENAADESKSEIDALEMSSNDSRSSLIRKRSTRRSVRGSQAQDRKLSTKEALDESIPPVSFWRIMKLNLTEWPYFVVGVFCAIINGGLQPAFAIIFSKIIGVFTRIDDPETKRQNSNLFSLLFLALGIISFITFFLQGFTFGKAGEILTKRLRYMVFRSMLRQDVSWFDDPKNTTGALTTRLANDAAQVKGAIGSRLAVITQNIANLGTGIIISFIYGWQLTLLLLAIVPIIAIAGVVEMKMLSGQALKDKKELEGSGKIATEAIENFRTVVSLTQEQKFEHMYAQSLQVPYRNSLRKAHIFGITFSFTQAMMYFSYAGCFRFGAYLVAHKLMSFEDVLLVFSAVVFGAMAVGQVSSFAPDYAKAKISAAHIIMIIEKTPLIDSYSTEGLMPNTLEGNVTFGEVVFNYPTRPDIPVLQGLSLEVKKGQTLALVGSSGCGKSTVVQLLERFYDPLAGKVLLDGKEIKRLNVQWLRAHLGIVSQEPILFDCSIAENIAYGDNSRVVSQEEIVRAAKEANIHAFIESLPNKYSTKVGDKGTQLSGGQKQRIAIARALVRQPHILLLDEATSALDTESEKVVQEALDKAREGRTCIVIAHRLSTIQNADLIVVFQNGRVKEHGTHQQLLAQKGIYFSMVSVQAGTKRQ
Sequence of human PGP (P08183 whole entry): as above

## Oc1ccc2c3c1O[C@H]1[C@H](O)CC[C@@]4(O)[C@@H](C2)N(CC2CC2)CC[C@]314 [6-β-Naltrexol, 6-β-naltrexol]
PGP1a [1]
  Activity 2: 100 µM
  Activity 1: 0.1 nM

## C=C1CC[C@@]2(O)[C@H]3Cc4ccc(O)c5c4[C@@]2(CCN3CC2CC2)[C@H]1O5 [Nalmefene, nalmefene]
PGP1a [1]
  Activity 2: 100 µM
  Activity 1: 0.3 nM
PGP1a [2]; 30 μM
  Vanadate-sensitive ATPase Activity: 2.3 nmol/mg/min
PGP1a [2]; 100 μM
  Vanadate-sensitive ATPase Activity: 3.2 nmol/mg/min
PGP1a [2]
  Inhibition of the ATPase associated with PGP1a: shown to inhibit
Human PGP; 0.0001 μM test substance
  % Inhibition of Digoxin Transport: 5.2%
Human PGP; 0.0003 μM test substance
  % Inhibition of Digoxin Transport: 7.2%
Human PGP; 0.001 μM test substance
  % Inhibition of Digoxin Transport: 2.8%
Human PGP; 0.003 μM test substance
  % Inhibition of Digoxin Transport: 5.1%
Human PGP; 0.01 μM test substance
  % Inhibition of Digoxin Transport: 3.9%
Human PGP; 0.03 μM test substance
  % Inhibition of Digoxin Transport: −7.2%
Human PGP; 0.1 μM test substance
  % Inhibition of Digoxin Transport: −0.3%
Human PGP; 0.3 μM test substance
  % Inhibition of Digoxin Transport: −5.6%
Human PGP; 1 μM test substance
  % Inhibition of Digoxin Transport: −2.6%
Human PGP; increasing concentration between 3 and 100 μM
  Inhibition of digoxin transport: increasingly inhibited
Mice [3]; [6]
  Development of tolerance to oxycodone: did not develop tolerance

## C=CCN1CC[C@]23c4c5ccc(O)c4O[C@H]2C(=O)CC[C@@]3(O)[C@H]1C5 [Naloxone, naloxone]
PGP1a [1]
  Activity 2: 30 µM
  Activity 1: 1.0 nM
PGP1a [2]; 1 μM
  Vanadate-sensitive ATPase Activity: 0.4 nmol/mg/min
PGP1a [2]; 3 μM
  Vanadate-sensitive ATPase Activity: 1.7 nmol/mg/min
PGP1a [2]; 10 μM
  Vanadate-sensitive ATPase Activity: 2 nmol/mg/min
PGP1a [2]; 30 μM
  Vanadate-sensitive ATPase Activity: 1.9 nmol/mg/min
PGP1a [2]; 100 μM
  Vanadate-sensitive ATPase Activity: 1.8 nmol/mg/min
PGP1a [2]
  Inhibition of the ATPase associated with PGP1a: shown to inhibit; also recorded: only weakly inhibited
Human PGP; 0.0001 μM nominal, normalized to 25 μM ketoconazole
  Ketoconazole Normalized % Inhibition of Digoxin Transport: 6.2%
Human PGP; 0.0003 μM nominal, normalized to 25 μM ketoconazole
  Ketoconazole Normalized % Inhibition of Digoxin Transport: 8.4%
Human PGP; 0.001 μM nominal, normalized to 25 μM ketoconazole
  Ketoconazole Normalized % Inhibition of Digoxin Transport: 10%
Human PGP; 0.01 μM nominal, normalized to 25 μM ketoconazole
  Ketoconazole Normalized % Inhibition of Digoxin Transport: −4.5%
Human PGP; 0.03 μM nominal, normalized to 25 μM ketoconazole
  Ketoconazole Normalized % Inhibition of Digoxin Transport: 5.7%
Human PGP; 0.1 μM nominal, normalized to 25 μM ketoconazole
  Ketoconazole Normalized % Inhibition of Digoxin Transport: −2.7%
Human PGP; 1 μM nominal, normalized to 25 μM ketoconazole
  Ketoconazole Normalized % Inhibition of Digoxin Transport: 7.8%
Human PGP; at the 30 and 100 μM concentrations
  Inhibition of digoxin transport: exhibited inhibitory behavior
Human PGP; concentrations below 30 μM, not concentration-dependent
  Inhibition of digoxin transport: slightly inhibited
Human PGP; nominal 0.03 μM as printed in the fourth line (measured […])
  Ketoconazole Normalized % Inhibition of Digoxin Transport: 5.7%

## CN1CC[C@]23c4c5ccc(O)c4O[C@H]2[C@@H](O)C=C[C@H]3[C@H]1C5 [morphine]
Mice [4]; Table 15, combined analysis (title prints Female Mice), Day 1
  Enhancement of Latency (tail flick): 7.4
Mice [4]; Table 15, combined analysis (title prints Female Mice), Day 3
  Enhancement of Latency (tail flick): 3.0
Mice [4]; Table 15, combined analysis (title prints Female Mice), Day 5
  Enhancement of Latency (tail flick): −1.2
Mice [4]; Table 15, combined analysis (title prints Female Mice), Day 8
  Enhancement of Latency (tail flick): −3.7
Mice [4]; Table 15, combined analysis (title prints Female Mice), Day 10
  Enhancement of Latency (tail flick): −3.3
Mice [4]; female mice, Day 1
  Enhancement of Latency (tail flick): 5.4
Mice [4]; female mice, Day 3
  Enhancement of Latency (tail flick): −0.1
Mice [4]; female mice, Day 5
  Enhancement of Latency (tail flick): −4.1
Mice [4]; female mice, Day 7
  Enhancement of Latency (tail flick): −5.0
Mice [4]; female mice, Day 10
  Enhancement of Latency (tail flick): −3.3
Mice [4]; female mice, Day 11, single bolus 10 μg/kg naltrexone to every mouse
  Enhancement of Latency (tail flick): −5.2
Mice [4]; male mice, Day 1
  Enhancement of Latency (tail flick): 9.3
Mice [4]; male mice, Day 3
  Enhancement of Latency (tail flick): 6.2
Mice [4]; male mice, Day 5
  Enhancement of Latency (tail flick): 1.6
Mice [4]; male mice, Day 8
  Enhancement of Latency (tail flick): −2.3
Mice [4]; male mice, Day 10
  Enhancement of Latency (tail flick): −3.3
Mice [4]; male mice, Day 12, single bolus 10 μg/kg naltrexone to every mouse
  Enhancement of Latency (tail flick): −4.3
Mice [5]; 3 mg/kg daily, by Day 5
  Tolerance: showed distinct tolerance
Mice [5]; female mice, especially from day five onwards
  Adaptation to repeated dosing (tail flick latency, words): show an adaptation to morphine
Mice [5]; male mice
  Adaptation to repeated dosing (tail flick latency, words): showed adaptation

## Oc1ccc2c3c1O[C@H]1c4[nH]c5c(c4C[C@@]4(O)[C@@H](C2)N(CC2CC2)CC[C@]314)C[C@@]1(O)[C@H]2Cc3ccc(O)c4c3[C@@]1(CCN2CC1CC1)[C@H]5O4 [nor-BNI, nor-binaltorphimine]
Mice [3]; female mice, 1 or 5 mg/kg oxycodone with 1 pg/kg, 1 ng/kg or 1 μg/kg naltrexone or 1 pg/kg nor-BNI
  Development of tolerance to oxycodone: None of the mice developed tolerance
Mice [3]; [6]
  Development of tolerance to oxycodone: did not develop tolerance
